Results taken from ChEMBL document CHEMBL1145306, “Synthesis of 2-C-hydroxymethylribofuranosylpurines as potent anti-hepatitis C virus (HCV) agents” (2006).

Columns and labels:
Hepatitis C virus [1] = test: Antiviral activity against HCV in Huh7 cell line at 1 uM assessed as reduction in luciferase activity; assay type: functional, Hepacivirus hominis; details: Huh-7
Hepatitis C virus [2] = test: Antiviral activity against HCV in Huh7 cell line at 10 uM assessed as reduction in luciferase activity; assay type: functional, Hepacivirus hominis; details: Huh-7

Structure (SMILES): Nc1ncnc2c1ncn2[C@@H]1O[C@H](CO)[C@@H](O)[C@]1(O)CO
- inhibition at 1 µM (Hepatitis C virus [1]): 2%
- inhibition at 10 µM (Hepatitis C virus [2]): 50%
